Reference: US20130344065A1, “Combination Treatment with VEGF-C Antagonists” (Vegenics Pty Ltd, priority 2010, published 2013)
Several values for one entry are separate records, joined by “and”; a condition that tells them apart may be missing. Equal entries are not always repeated. Entries after “also recorded” stand apart in the source; their conditions may differ.

Columns and labels:
[1] = tested on: VEGF-C stimulated HUVEC proliferation; assay: HUVEC proliferation assay; format: cell-based; settings: 48 hrs, WST-1
Procedure: HUVEC proliferation assays were conducted for 48 hrs and cell number measured with WST-1 reagent (Roche).

[2] = tested on: U87MG glioblastoma tumors (xenograft); assay: U87MG glioblastoma xenograft, single agent (Example 6)
Procedure: Antibodies were administered twice per week by intraperitoneal injection.
To initiate the study, 5×10^6 of U-87 cells suspended in 100 μl of a mixture of medium/Matrigel (1:1) were subcutaneously implanted to the nude mice in the right flank region. Cancer cells were planted into 80 mice. Animals were monitored for tumor growth daily after cell implantation. When tumor volumes reached 80-100 mm^3, mice were randomized into 5 groups of 10 mice each using only mice having tumor volumes closest to the mean value. Mice with tumor volumes too big or too small were excluded from the study. Tumor volumes were measured using the formula V=L×W×H×π/6, where L and W represented the longer and shorter diameters of the tumor and H represented the height of the tumor. The treatment with drugs was initiated on the day after randomization. […] The treatment was carried out twice weekly for 27 days. Throughout the entire study, tumor volumes were measured twice weekly and body weights once weekly. […] Unscheduled sacrifices were performed if tumor volumes reached>1,500 mm^3, animals lost>25% of their original body weights, tumor ulceration appeared, or mice became moribund.

[3] = target: T1, VEGF-C binding to the extracellular domain of VEGFR-3 (Homo sapiens, UniProt P49767); assay: Ba/F3-VEGFR-3/EpoR bioassay of VEGF-C binding; format: cell-based; settings: [3H]thymidine incorporation, 48 hrs
T1 construct: expressed in transfected cells; host or cells: Ba/F3 cells (BA/F3-VEGFR-3/EpoR)
T1 sequence (P49767 112-227 limits assumed): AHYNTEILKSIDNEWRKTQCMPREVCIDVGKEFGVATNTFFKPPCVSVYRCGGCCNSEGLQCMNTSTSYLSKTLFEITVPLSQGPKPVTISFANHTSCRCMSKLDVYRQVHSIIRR
Procedure: (§1) The binding of VEGF-C to the extracellular domain of VEGFR-2 or VEGFR-3 was measured using BA/F3-VEGFR-2 or -3/EpoR cells. The response to ligands and VGX-100 was measured by [^3H]-thymidine incorporation following exposure for 48 hrs.
(§2) Bioassays to measure the binding of VEGF-C to the extracellular domain of VEGFR-2 or VEGFR-3 were performed with BA/F3-VEGFR-2 or BA/F3-VEGFR-3/EpoR cells. The response to ligands and VGX-100 was measured by [^3H] thymidine incorporation following exposure for 48 hrs.

[4] = tested on: U87MG human glioblastoma tumors; assay: U87MG glioblastoma xenograft, combination (Example 7); format: in vivo, nude mice; settings: VGX-100 40 mg/kg, bevacizumab 10 mg/kg, administered alone
Procedure: This experiment was conducted broadly in accordance with Example 3, except that U87MG glioblastoma cells were substituted for PC-3 prostate cancer cells. Cells from a human glioblastoma tumor line (U87MG) were implanted subcutaneously into mice and grown until the tumors reached an average size of approximately 150 mg. […] There were 10 animals per treatment group.

[5] = tested on: KP4 human pancreatic tumors; assay: KP4 pancreatic xenograft (Example 8); settings: for % T/C: after 30 days
Procedure: VGX-100 was administered at 20 or 40 mg/kg for single therapy and at 40/mg/kg for combination therapy.
To initiate the study, 5×10^6 of KP4 cells suspended in 100 μl of a mixture of medium/Matrigel (1:1) were subcutaneously implanted to the nude mice in the right flank region. Cancer cells were implanted into 90 mice. Animals were monitored for tumor growth daily after cell implantation. When tumor volumes reached 80-100 mm^3, mice were randomized into 5 groups of 10 mice each using only mice having tumor volumes closest to the mean value. Mice with tumor volumes too big or too small were excluded from the study. Tumor volumes were measured using the formula V=L×W×H×π/6, where L and W represented the longer and shorter diameters of the tumor and H represented the height of the tumor. The treatment with drugs was initiated on the day after randomization. […] All treatments were administered intraperitoneally twice weekly for 30 days.
Throughout the entire study, tumor volumes were measured twice weekly and body weights once weekly. […] Unscheduled sacrifices were performed if tumor volumes reached>2,000 mm^3, animals lost>25% of their original body weights, tumor ulceration appeared, or mice became moribund. At the end of the experiment, tumors were removed, embedded in Optimal Cutting Temperature (OCT), and stored at −80° C. for IHC analysis. Gross examination was conducted on liver, lung, spleen, kidneys, testes, and prostate. If no abnormal observation was detected on these organs, the tissues were discarded.
Tumor size was measured 2-3 times weekly with calipers. Size of tumors relative to controls is calculated after 30 days of treatment.

[6] = tested on: PC-3-GFP human prostate tumors; assay: PC-3-GFP orthotopic MetaMouse model (Example 13); format: in vivo
Procedure: PC-3-GFP human prostate cancer orthotopic MetaMouse® model was conducted by AntiCancer Inc. PC-3-GFP tumor fragments were surgically implanted between the ventral lobes of the prostate and closed by suture. Treatment was started three days after surgery (60 mg/kg, 3×/week, IP). Whole body imaging of GFP-expressing tumors was performed once a week in live animals after GFP-visible tumors were established. Primary tumor sizes were estimated once a week by caliper measurement and tumor volume (mm^3) calculated by the formula (L×W2)/2. Details of the study are as follows:
Male NCr nu/nu mice, 5-6 weeks old, were used in the study. Original breeding pairs were purchased from Taconic, Germantown, N.Y. Test animals were bred and maintained in a HEPA filtered environment for the experiment. Cages, food and bedding were autoclaved. The animal diets were obtained from PMI Nutrition International Inc. (Brentwood, Mo.).
Vehicle, VGX-100 and Isotype were kept at −20° C. until use. VGX-100 and Isotype were diluted with PBS to proper concentration (7.5 mg/ml and 7.5 mg/ml) before use.
Tumor stocks were made by subcutaneously injecting PC-3-GFP cells at a concentration of 5×10^6 cells/100 μl into the flank of nude mice. The tumor tissues harvested from s.c. growth in nude mice were inspected and any grossly necrotic or suspected necrotic or non-GFP tumor tissues were removed. Tumor tissues were subsequently cut into small fragments of approximately 1 mm^3.
The animals were anesthetized with the mixture of Ketaset, Xylazine and PromAce and the surgical area was sterilized using iodine and alcohol. An incision approximately 2 cm long was made in the lower abdomen of the nude mouse using a sterile scalpel and blade (#10). The prostate was exposed and the capsule of the prostate was carefully opened. Two fragments (1 mm^3 each) of PC-3-GFP tissue were sutured between two ventral lobes of the prostate with sterile 8-0 surgical suture (nylon). The abdomen was closed in one layer with sterile 6-0 surgical sutures (silk). All procedures were carried out under a 5× dissecting microscope under HEPA filtered laminar flow hoods.
Treatment in both groups was started three days after SOI.
The FluorVivo imaging system (INDEC Biosystems, Santa Clura, Calif.) was used for whole body imaging. Whole body optical imaging of GFP-expressing tumors was performed once a week in live animals after GFP-visible tumors were established. At necropsy, open imaging was performed in the thoracic and abdomen for inspection of metastasis to the lymph nodes.
Tumor size and body weight measurement: Primary tumor sizes and body weights were measured once a week by using a calipers and an electronic scale, respectively. Primary tumor sizes were estimated once a week by measuring the perpendicular minor dimension (W) and major dimension (L). Approximate tumor volume (mm^3) was calculated by the formula (W2×L)×1/2.
All the animals were sacrificed at day 30 after treatment initiation.
Primary tumor was excised and weighed at necropsy.
The Student's t-test with α equal to 0.05 was used to compare the mean tumor volume and tumor weight among the experimental groups.

[7] = target: T2, VEGF-C binding to the extracellular domain of VEGFR-2 (Homo sapiens, UniProt P49767); assay: Ba/F3-VEGFR-2 bioassay of VEGF-C binding; format: cell-based; settings: [3H]thymidine incorporation, 48 hrs
T2 construct: expressed in transfected cells; host or cells: Ba/F3 cells (BA/F3-VEGFR-2)
T2 sequence (P49767 112-227 limits assumed): T1 sequence (P49767 112-227 limits assumed)
Procedure: as §1, §2

[8] = tested on: PC-3 human prostate carcinoma xenografts; assay: PC-3 xenograft combination therapy (Example 3, first study);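 also: subcutaneous PC-3 tumors in male athymic NCr nude mice aged 6-7 weeks, combination agents dosed within 30 min of each other, animals euthanized once tumors exceeded 2 g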
Procedure: Docetaxel was administered intravenously at 10 mg/kg weekly for three injections.
HIgG1 Isotype control-humanised antibody (6.4-12.36 mg/ml) and VGX-100 (5.53 and 5.75 mg/ml) were provided as frozen colorless stock solutions in Dulbecco's phosphate buffered saline (DPBS) and stored from light at −80° C. The stock solutions were thawed and stored at 4° C. when treatment began. The dosing solutions (40 mg/kg in 0.2 ml/20 g body weight) were prepared by diluting the stock solution with DPBS. The resulting formulations were clear with pH values ranging from 7.02-7.21. The dosing vials were kept on wet ice during dosing, gently pipetted and not aspirated through a needle except during administration. Dosing solutions were prepared weekly in DPBS and stored protected from light at 4° C. while not in use.
Docetaxel (lot no. D9A095) was manufactured by Sanofi-Aventis and obtained from McKesson as a pale yellow solution in 50% EtOH/50% Tween80. It was stored protected from light at 4° C. Docetaxel was diluted as directed on the package insert with the provided diluent (sterile water) to produce a clear and colorless 10 mg/ml stock solution. On each treatment day, a fresh 10 mg/ml stock was prepared and further diluted with water to achieve the appropriate concentration. The resulting solution was clear and colorless with a pH of 7.16.
All test articles were administered within two hours of preparation. For groups receiving combination therapy, the drugs were administered in the order presented in Table 1 and within 30 minutes of one another.
Male NCR(NCRNU-M) athymic mice were obtained from Taconic. They were 6-7 weeks old on Day 1 of the experiment. The mice were fed irradiated Rodent Diet 5053 (LabDiet™) and water ad libitum. The mice were housed in static cages with Bed-O'Cobs™ bedding inside Biobubble® Clean Rooms that provide H.E.P.A filtered air into the bubble environment at 100 complete air changes per hour. All treatments, body weight determinations, and tumor measurements were carried out in the bubble environment. The environment was controlled to a temperature range of 21.1±1.1° C. (70±2° F.) and a humidity range of 30-70%.
Test mice were implanted subcutaneously on Day 0. […] Mice with tumors in excess of 2 g or with ulcerated tumors were euthanized, as were those found in obvious distress or in a moribund condition.
PC-3 cells were obtained from ATCC and expanded using Ham's F-12 media supplemented with 10% fetal bovine serum and 1% penicillin-streptomycin-glutamine in 5% CO2 atmosphere at 37° C. When expansion was complete, the cells were collected using Trypsin (Cell Gro®), the trypsin neutralized, and the cells pooled for implantation. The PC-3 (Passage 10) cell suspension was counted using trypan blue exclusion with a hemacytometer. The cell suspension was reduced to a pellet using an Eppendorf 5810R centrifuge at 1500 rpm (300×g) for 5 minutes at 4° C. A 2.5×10^7 cells/ml suspension was prepared in 50% serum free media and 50% Matrigel®. Pre-injection viability was 97.7%. Test animals were implanted subcutaneously on Day 0 with 5×10^6 cells/animal (0.2 ml) using a 27-gauge needle and syringe. The cell suspension was maintained on wet ice to minimize the loss of viability and inverted frequently to maintain a uniform cell suspension during the inoculation procedure.
Treatments began on Day 8, when the mean estimated tumor mass for all groups in the experiment was 129 mg (range of group means, 123-134 mg). All animals weighed≧19.2 g at the initiation of therapy. Mean group body weights at first treatment were matched (range of group means, 21.5-22.8 g). All animals were dosed according to individual body weight on the day of treatment (0.2 ml/20 g).

[9] = VGX-100 40 mg/kg and/or Avastin 10 mg/kg

“VGX-100: VEGF-C antibody; heavy chain SEQ ID NO: 3, light chain SEQ ID NO: 4” was tested, and the “Inhibition of VEGF-C stimulated HUVEC proliferation” value [1] was “inhibited VEGF-C stimulated HUVEC proliferation”, the “Tumor growth vs vehicle control” value ([2]; VGX-100 40 mg/kg IP twice weekly) was “significantly inhibited tumor growth” and the “Tumor volume response” value ([2]; VGX-100 10 and 20 mg/kg IP twice weekly) was “improved over the negative control”. The “Blocking of VEGF-C binding to VEGFR-3” value [3] was “blocked VEGF-C binding”, the “Effect on tumor growth” value [4] was “no significant effect” and the “Mean Tumor Vol. at D30 (mm3)” value ([5]; VGX-100 20 mg/kg) was 1492.77 mm3. The “Mean Tumor Vol. at D30 (mm3)” value [5, 9] was 693.24 mm3, the “Mean Tumor Vol. at D30 (mm3)” value ([5]; VGX-100 60 mg/kg) was 958.93 mm3 and the “% T/C” value ([5]; VGX-100 20 mg/kg) was 76.0%. The “% T/C” value [5, 9] was 35.3%, the “% T/C” value ([5]; VGX-100 60 mg/kg) was 48.8% and the “Reduction of incidence of metastasis to local lymph nodes vs control” value ([6]; 60 mg/kg IP) was 55%. For the same substance, the “Toxicity / body weight” value ([6]; 60 mg/kg IP 3x/week) was “no obvious toxicity; also recorded: No acute body weight loss”, the “Metastatic incidence to lymph nodes vs control” value ([6]; FOTI, Fisher's exact test) was “significant difference in metastatic incidence” and the “# of animals with lymph node (LN) mets” value ([6]; FOTI, of 19 analyzed animals, 60 mg/kg IP) was 6. For the same substance, the “Animals with lymph node (LN) mets, percent” value ([6]; FOTI, 60 mg/kg IP) was 32%, the “Tumor volume vs isotype control” value ([6]; day 28) was “statistically significant reduction” and the “Reduction of mean tumor volume vs isotype control” value ([6]; day 28, 60 mg/kg IP) was 59%. The “Mean tumor volume (mm^3) mean ± SE” value ([6]; day 28 after treatment, caliper, 60 mg/kg IP 3x/week) was 176.8 ± 183.2 mm^3, the “Tumor weight vs isotype control” value ([6]; day 30) was “A statistically significant reduction was not observed” and the “Mean tumor weight (g) mean ± SE” value ([6]; day 30 after treatment, 60 mg/kg IP) was 0.95 ± 0.45 g. For the same substance, the “Blocking of VEGF-C binding to VEGFR-2” value [7] was “blocked VEGF-C binding”, the “Time to evaluation size” value ([8]; 750 mg, individual animals) was 39.5 days and 22.8 days and 19.9 days and 22.3 days and 33.5 days and 18.5 days and 31.1 days and 19.4 days and 22.0 days and 22.2 days and the “Tumor Growth Delay” value ([8]; T-C, evaluation size 750 mg, same doses) was 2.2 days. For the same substance, the “% T/C Day 22” value ([8]; VGX-100 40 mg/kg IP, bevacizumab 10 mg/kg IP, docetaxel 10 mg/kg IV, median tumor mass vs control) was 87%, the “% T/C: tumor burden in treatment group compared to control” value ([8]; at day 160) was 97.9% and the “% TFS (tumor free survivors)” value ([8]; at termination, Day 160, same doses) was 0%. The “Td” value ([8]; group mean) was 8.3 days, the “Time to evaluation size” value ([8]; group mean) was 25.1 days and the “Time to fold growth EP” value ([8]; group mean) was 20.4 days. For the same substance, the “Td” value ([8]; group median) was 6.2 days, the “Time to evaluation size” value ([8]; group median) was 22.2 days and the “Time to fold growth EP” value ([8]; group median) was 20.8 days. The “Time to fold growth EP” value ([8]; individual animals) was 27.4 days and 20.9 days and 16.4 days and 21.5 days and 28.2 days and 13.9 days and 21.3 days and 15.8 days and 17.9 days and 20.7 days, the Complete regression ([8]; individual animals, yes/no) was “no” and the Partial regression ([8]; individual animals, yes/no) was “no”. For the same substance, the Tumor free survivor ([8]; individual animals, yes/no) was “no”, the “Total CR” value ([8]; number of animals of 10) was 0 and the “Total PR” value ([8]; number of animals of 10) was 0. The “Total TFS” value ([8]; number of animals of 10) was 0, the “% CR (complete regression)” value ([8]; same doses) was 0% and the “% PR (partial regression)” value ([8]; same doses) was 0%. The “Anticancer activity of regimen” value ([8]; same doses) was “ineffective”, the “Apparent Net Tumor Cell Kill (logs)” value ([8]; same doses) was −2.85 logs and the “Tumor regressions” value ([8]; same doses) was “Nor tumor regressions were observed”. For the same substance, the “Td” value ([8]; tumor doubling time, individual animals) was 16.6 days and 5.1 days and 6.0 days and 6.1 days and 14.1 days and 5.7 days and 12.3 days and 6.3 days and 7.1 days and 3.8 days.
